Molecules are shown by their SMILES.

The test system of the data set is Caco-2 monolayer permeability, A-to-B, LC-MS/MS. In words: Inhibitors of 12-hLO: Caco-2 Permeability Profiling. Particulars: active compounds read high. From the text:
Assay Provider: Holman, T.R., University of California, Santa Cruz Grant #: MH08128301 Screening Center PI: Austin, C.P. Screening Center: NIH Chemical Genomics Center [NCGC] Human lipoxygenase 12hLO is a member of the closely related lipoxygenase family of enzymes which catalyze the site-specific oxidation of arachidonic acid to various hormone precursor molecules and as such is a candidate for drug development in a variety of disease areas, such as cancer and inflammation. After qHTS, hits were confirmed in follow-up assays, and leads were optimized through SAR. The resulting lead compound was further characterized through a battery ADME-Tox experiments and this assay describes its Caco-2 permeability. This permeability assay predicts the in vivo absorption of the lead across the intestinal lining by using a Caco-2 cell line and measuring the lead's rate of transport […].
1. Buffer Preparation: Prepare 1M HEPES: add 23.83g HEPES to 100ml of 0.85% NaCl Prepare HBSS+ buffer: add 12.8ml of 1M HEPES in 0.85% NaCl to 500ml HBSS buffer. 2. Take out the compounds from -80 degrees C, ultrasonicate or pre-warm for a few minutes to thaw the compounds. 3. […] The T0, LY and T90, LY plates are read by FlexStation 3 at excitation of 485 nm and emission of 535 nm to determine LY permeability. […]
In general terms: Passage across Caco-2 layers is used to estimate intestinal permeability.

`CC(=O)NC(c1cccs1)c1cc(Br)c2cccnc2c1O` (stereo unspecified): the permeability Papp is 8.8 10^-6 cm/s.

Source of the values: PubChem BioAssay AID504611 (National Center for Advancing Translational Sciences (NCATS), 2011).
